Some test systems named below: A498; A549; COLO 205; HOP-18; HOP-92; KM12; MDA-MB-231; MOLT-4; NCI-H226; OVCAR-3; OVCAR-4; PC-3; RPMI-8226; SF-268; SF-295; SF-539; SK-MEL-5; SK-OV-3; SW-620; T47D.
Assay in all cases: DTP human tumour cell line panel, 48 h

Experimental findings from ChEMBL document CHEMBL1201862, “PubChem BioAssay data set” (2004) are described below.

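Five compound concentrations were applied to cells in 96-well plates for 48 hours; endpoints were derived by simple linear interpolation of the resulting dose-response curve. GI50 = concentration required for 50% inhibition of growth.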 Activity calls are given as the source filed them. Rule as the data show it: active = GI50 up to about 1.1 µM and inactive = higher. A value given as a limit tells only on which side of the number the result lay.

As usually defined, the GI50 is the concentration that inhibits growth by half. `CC[C@]1(O)C[C@H]2CN(CCc3c([nH]c4ccccc34)[C@@](C(=O)OC)(c3cc4c(cc3OC)N(C)[C@H]3[C@@](O)(C(=O)OC)[C@H](OC(C)=O)[C@]5(CC)C=CCN6CC[C@]43[C@@H]65)C2)C1`: the concentration for 50% growth inhibition (GI50) is 0.00252 µM (active) in the experiment with A498; 0.00157 µM (active) in the experiment on A549; 0.000435 µM (active) in the experiment with COLO 205; 0.573 µM (active) in the experiment on HOP-18; 0.00227 µM (active) in the experiment with HOP-92; 0.000493 µM (active) in the experiment on KM12. For the same molecule, the GI50 in the experiment on MDA-MB-231 is 0.000991 µM (active); in the experiment on MOLT-4, 0.000736 µM (active); with NCI-H226, 0.00115 µM (active); with OVCAR-3, 0.00038 µM (active); in the experiment with OVCAR-4, 0.136 µM (active); with PC-3, 0.000412 µM (active). The concentration for 50% growth inhibition (GI50) is 0.000679 µM (active) with RPMI-8226; 0.000986 µM (active) in the experiment with SF-268; 0.000492 µM (active) in the experiment with SF-295; 0.000605 µM (active) with SF-539; 0.000354 µM (active) with SK-MEL-5; 0.000867 µM (active) with SK-OV-3. The GI50 in the experiment on SW-620 is 0.000564 µM (active).

In the case of `Cc1ccc(S(=O)(=O)N2c3ccccc3[C@H]3CCC=C[C@H]32)cc1`, the GI50 is 6.4 µM (inactive) in the experiment with A498; 6.75 µM (inactive) in the experiment with A549; 3.94 µM (inactive) with COLO 205; 59.3 µM (inactive) with HOP-18; 3.16 µM (inactive) in the experiment with HOP-92; 3.83 µM (inactive) with KM12. Further, the GI50 in the experiment with MDA-MB-231 was 49.2 µM (inactive); with MOLT-4, 4.81 µM (inactive); with NCI-H226, 10.5 µM (inactive); in the experiment on OVCAR-3 it was 4 µM (inactive); in the experiment with OVCAR-4, 17.3 µM (inactive); in the experiment on PC-3, 11.2 µM (inactive). The GI50 is 6.55 µM (inactive) with RPMI-8226; 10.9 µM (inactive) with SF-268; 3.91 µM (inactive) with SF-295; 9.42 µM (inactive) in the experiment with SF-539; 7.4 µM (inactive) in the experiment with SK-MEL-5; 2.54 µM (inactive) in the experiment on SK-OV-3. Moreover, the GI50 in the experiment with SW-620 is 4.51 µM (inactive); with T47D, 4.97 µM (inactive).

Consider `CCCCCCCCCCCCCCCCSS(C)(=O)=O`, for which the GI50 in the experiment with A498 was 52.4 µM (inactive); with A549, > 65.3 µM (inactive); with COLO 205, 19.2 µM (inactive); with HOP-18 it was 58.7 µM (inactive); in the experiment on HOP-92, 15.5 µM (inactive); with KM12, > 100 µM (inactive). For the same molecule, the GI50 with MDA-MB-231 was > 100 µM (inactive); in the experiment on MOLT-4, 1.39 µM (inactive); in the experiment on NCI-H226 it was > 27.6 µM (inactive); with OVCAR-3 it was 10.9 µM (inactive); with OVCAR-4, 18.7 µM (inactive); with PC-3, > 100 µM (inactive). The GI50 in the experiment with RPMI-8226 was 5 µM (inactive); in the experiment on SF-268 it was 10.7 µM (inactive); in the experiment with SF-295 it was > 100 µM (inactive); in the experiment with SF-539 it was 17.9 µM (inactive); with SK-MEL-5 it was 32.8 µM (inactive); with SK-OV-3, 97.9 µM (inactive). Besides, the GI50 was 5.21 µM (inactive) with SW-620 and 8.97 µM (inactive) in the experiment with T47D.

In the case of `Cn1c(O)c(C(=O)NC2CCCCC2)c(=O)n(C)c1=S`, the GI50 is 4.44 µM (inactive) in the experiment with A498; 3.3 µM (inactive) in the experiment on A549; 1.94 µM (inactive) in the experiment on COLO 205; 3.6 µM (inactive) in the experiment with HOP-18; 3.59 µM (inactive) in the experiment with HOP-92; 9.66 µM (inactive) in the experiment with KM12. Besides, the GI50 in the experiment with MOLT-4 was 3.56 µM (inactive); in the experiment with NCI-H226, 8.57 µM (inactive); in the experiment with OVCAR-3, 4.93 µM (inactive); in the experiment with OVCAR-4, 6.75 µM (inactive); in the experiment on RPMI-8226, 4.32 µM (inactive); with SF-268, 4.56 µM (inactive). The GI50 was 3.23 µM (inactive) with SF-295; 9.16 µM (inactive) with SF-539; 5.05 µM (inactive) in the experiment with SK-MEL-5; 5.64 µM (inactive) with SK-OV-3; 5.79 µM (inactive) with SW-620.

For the molecule `N#CC1(C2SCC[S+]2[O-])C2=C(C(=O)c3ccccc3C2=O)N2CCCC21` (stereo unspecified), the GI50 in the experiment on A498 is 4.07 µM (inactive); with A549, 2.1 µM (inactive); in the experiment on COLO 205, 2.24 µM (inactive); with HOP-18 it was 3.25 µM (inactive); in the experiment on HOP-92, 3.85 µM (inactive); with KM12, 3.02 µM (inactive). For the same molecule, the GI50 in the experiment with MDA-MB-231 was 2.17 µM (inactive); with MOLT-4 it was 3.06 µM (inactive); in the experiment with NCI-H226, 3.66 µM (inactive); in the experiment on OVCAR-3 it was 0.583 µM (active); with OVCAR-4, 1.7 µM (inactive); in the experiment with PC-3 it was 1.88 µM (inactive). The GI50 in the experiment with RPMI-8226 was 1.05 µM (active); in the experiment on SF-268, 3.01 µM (inactive); in the experiment on SF-295, 1.99 µM (inactive); in the experiment on SF-539, 3 µM (inactive); with SK-MEL-5 it was 0.364 µM (active); with SK-OV-3, 15.3 µM (inactive). Also, the GI50 in the experiment with SW-620 was 2.13 µM (inactive); with T47D, 3.3 µM (inactive).
